Patent publication US7560482B2, “Inhibitors of plasmepsins” (The Johns Hopkins University, priority 2001, dated 2009)
Like-named read-outs stand apart in the source and are kept apart here.

Legend:
[1] = biological target: T1, plasmepsin II from Plasmodium falciparum (Plm II) (Plasmodium falciparum, UniProt P46925); test: Plasmepsin II inhibition assay, hydrolysis of chromogenic substrate; assay type: biochemical; conditions: for discrimination factor / Cathepsin D selectivity: Plasmepsin II versus Cathepsin D, fold; for Discrimination Factor: Fold Selectivity for Plasmepsin II over Cathepsin D: ratio of the Ki for Cathepsin D to the Ki for Plasmepsin II
T1 construct: made in house; host or cells: Escherichia coli
Experimental: FIG. 7A-C. Inhibition of Plasmepsin II from Plasmodium falciparum by KNI-10033, KNI-10030 and KNI-10006 at 20° C. in 10 mM sodium citrate, 100 mM NaCl, 2% DMSO, pH 4.0. The inhibition constants are 3 nM, 11 nM and 0.5 rLM respectively.
(§1) The specific activity of plasmepsin II from Plasmodium falciparum (Plm II) cloned in and purified from Escherchia coli and commercially available human Cathepsin D were measured by following the hydrolysis of the chromogenic substrate Ala-Leu-Glu-Arg-Thr-nPhe-Phe-Ser-Phe-Pro-Thr-OH (California Peptide Research Inc., Napa, Calif.). The decrease in absorbance upon hydrolysis is monitored at 300 nm. Typical Plasmepsin II preparations hydrolyze chromogenic substrate at 4-5 s^−1 at 37° C. The inhibition assays were performed at 25° C. in 10 mM sodium formate, 2% DMSO, pH 4.0. These pH conditions mimic the conditions in the food vacuole of the parasite. […] Inhibition constants (Ki) for the inhibitors are obtained at the desired temperature and solvent conditions by measuring the rate of substrate hydrolysis at increasing amounts of inhibitors. Exemplary results from three compounds (KNI-10033, KNI-10030 and KNI-10006) are shown in FIG. 7A-C, and the results obtained with all KNI compounds tested are given in Table 1.

[2] = biological target: T2, human Cathepsin D (Homo sapiens, UniProt P07339); test: Cathepsin D inhibition assay, hydrolysis of chromogenic substrate; assay type: biochemical
T2 construct: purchased
Experimental: as §1

[3] = system: chloroquine-sensitive Plasmodium falciparum (NF54); test: malaria-infected human red blood cell assay, [3H]hypoxanthine incorporation; assay type: cell-based; conditions: P. falciparum NF54, 48 h + 20 h incubation; read-out: IC50, killing of malaria parasite in infected red blood cell assay
Experimental: The ability of some KNI compounds to kill the malaria parasite was evaluated by measuring the IC50 in a malaria-infected human red blood cell assay. Activity was determined by measuring the incorporation of [^3H]hypoxanthine. Briefly, chloroquine-sensitive Plasmodium falciparum (NF54) were maintained in a 2.4% suspension of type O^+ human erythrocytes in RPMI 1640, supplemented with 25 mM HEPES, 27 mM NaHCO3, and 10% heat-inactivated human type O^+ serum, under 3% O2, 4% CO2, and 93% N2. 20 mM stock solutions of KNI-764 and KNI-727 and KNI-840 were prepared in DMSODMSO solutions were diluted 500 fold in medium, serially diluted in 0.2% DMSO in medium, then 100 μl aliquots were pipetted into microtiter plate wells. Provisional EC50 values were obtained in a survey of ten 5-fold dilutions yielding final concentrations (in quadruplicate) of 0.00001-20 μM. Plates included 8 wells of no drug controls (4 with and 4 without DMSO) and 4 wells in uninfected erythrocytes. […] The filters were washed four times with 3 ml water per sample spot, dried under a heat lamp, and counted in scintillation cocktail. Decays per minute values were downloaded and analyzed in order to yield the mean and standard deviation at each drug concentration. […]

[4] = 25° C., 10 mM sodium formate, 2% DMSO, pH 4.0, fit to competitive inhibition, read-out: Ki Plm II
[5] = 25° C., 10 mM sodium formate, 2% DMSO, pH 4.0, fit to competitive inhibition, read-out: Ki CatD
[6] = Table 2, read-out: Ki Cathepsin D
[7] = Table 2, read-out: Ki Plasmepsin II

T2 sequence (P07339 65-412): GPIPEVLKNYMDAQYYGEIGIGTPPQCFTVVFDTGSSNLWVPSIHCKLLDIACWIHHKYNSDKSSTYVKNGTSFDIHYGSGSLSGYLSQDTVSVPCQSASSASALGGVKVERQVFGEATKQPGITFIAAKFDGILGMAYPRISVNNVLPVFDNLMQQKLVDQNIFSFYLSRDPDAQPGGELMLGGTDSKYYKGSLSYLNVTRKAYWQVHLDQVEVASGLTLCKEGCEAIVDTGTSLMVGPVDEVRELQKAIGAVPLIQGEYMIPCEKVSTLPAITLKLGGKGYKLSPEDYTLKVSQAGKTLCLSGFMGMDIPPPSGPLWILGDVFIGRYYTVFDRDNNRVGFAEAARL
T1 sequence (P46925 125-453): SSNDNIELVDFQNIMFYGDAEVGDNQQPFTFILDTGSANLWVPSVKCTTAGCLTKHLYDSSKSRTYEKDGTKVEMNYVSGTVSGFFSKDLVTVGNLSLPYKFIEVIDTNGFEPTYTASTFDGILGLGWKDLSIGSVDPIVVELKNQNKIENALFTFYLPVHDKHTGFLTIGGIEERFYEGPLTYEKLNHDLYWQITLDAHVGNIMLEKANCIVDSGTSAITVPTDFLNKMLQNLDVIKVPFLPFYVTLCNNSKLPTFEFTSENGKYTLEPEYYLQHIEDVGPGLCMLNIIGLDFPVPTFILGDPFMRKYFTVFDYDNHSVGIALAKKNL

Row | Compound | Ki [1, 4] | Ki [2, 5] | also measured
1 | COc1ccc(CCNC(=O)[C@H]2N(C(=O)[C@@H](O)[C@H](Cc3ccccc3)NC(=O)COc3c(C)cccc3C)CSC2(C)C)cc1 [KNI-10025] | 75 ± 10 nM | 655 ± 83 nM | 
2 | CC[C@H](C)[C@H](NC(=O)COc1cccc2cnccc12)C(=O)N[C@@H](Cc1ccccc1)[C@H](O)C(=O)N1CSC(C)(C)[C@H]1C(=O)NC(C)(C)C [KNI-10001] | 359 ± 60 nM | 1610 ± 330 nM | 
3 | CSC[C@H](NC(=O)COc1cccc2cnccc12)C(=O)N[C@@H](Cc1ccccc1)[C@@H](O)C(=O)N1CSC[C@H]1C(=O)NC(C)(C)C [KNI-529] | 8090 ± 2600 nM | 8820 ± 2800 nM | 
4 | Cc1cccc(C)c1OCC(=O)N[C@@H](Cc1ccccc1)[C@H](O)C(=O)N1CSC(C)(C)[C@H]1C(=O)Nc1cccc2ccccc12 [KNI-10031] | 83 ± 7 nM | 130 ± 19 nM | 
5 | CCC[C@H](NC(=O)COc1cccc2cnccc12)C(=O)N[C@@H](Cc1ccccc1)[C@H](O)C(=O)N1CSC(C)(C)[C@H]1C(=O)NC(C)(C)C [KNI-10042] | 222 ± 17 nM | 2260 ± 166 nM | 
6 | CSC[C@H](NC(=O)COc1c(C)cccc1C)C(=O)N[C@@H](Cc1ccccc1)[C@H](O)C(=O)N1CSC(C)(C)[C@H]1C(=O)NC(C)(C)C [KNI-10041] | 496 ± 69 nM | 1670 ± 256 nM | 
7 | CC(C)(C)NC(=O)[C@H]1N(C(=O)[C@@H](O)[C@H](Cc2ccccc2)NC(=O)[C@H](Cc2ccccc2)NC(=O)COc2cccc3cnccc23)CSC1(C)C [KNI-10051] | 186 ± 14 nM | 6510 ± 1220 nM | 
8 | Cc1cccc(C)c1OCC(=O)NC(Cc1ccccc1)C(O)C(=O)N1CSC(C)(C)C1C(=O)NC(CO)c1ccccc1 (centres unmarked) [KNI-10044] | 532 ± 70 nM | 1040 ± 178 nM | 
9 | CC(C)(C)NC(=O)[C@@H]1CSCN1C(=O)[C@@H](O)[C@H](Cc1ccccc1)NC(=O)CCC(=O)O [KNI-357] | 96900 ± 19100 nM | 8120 ± 1500 nM | 
10 | Cc1ccc(CNC(=O)[C@H]2N(C(=O)[C@@H](O)[C@H](Cc3ccccc3)NC(=O)COc3c(C)cccc3C)CSC2(C)C)cc1 [KNI-10052] | 572 ± 54 nM | 1320 ± 152 nM | 
11 | CC(C)[C@H](NC(=O)COc1cccc(Nc2ccccc2)c1)C(=O)N[C@@H](Cc1ccccc1)[C@H](O)C(=O)N1CSC(C)(C)[C@H]1C(=O)NC(C)(C)C [KNI-10005] | 250 ± 190 nM | 507 ± 100 nM | 
12 | CSCC(NC(=O)COc1cccc2cnccc12)C(=O)NC(Cc1ccccc1)C(O)C(=O)N1CSC(C)(C)C1C(=O)NC(C)(C)C (centres unmarked) [KNI-227] | 36 ± 10 nM | 1770 ± 230 nM | inhibition constants against Plasmepsin II, in words [1]: nanomolar and subnanomolar range; discrimination factor / Cathepsin D selectivity [1]: 50; Ki [1, 7]: 36 nM; Discrimination Factor: Fold Selectivity for Plasmepsin II over Cathepsin D [1]: ~49; Ki ([1]; read-out: Ki against Plasmepsin II): 30 nM; Ki [2, 6]: 1770 nM
13 | COc1ccc(CNC(=O)[C@H]2N(C(=O)[C@@H](O)[C@H](Cc3ccccc3)NC(=O)COc3c(C)cccc3C)CSC2(C)C)cc1 [KNI-10008] | 169 ± 20 nM | 461 ± 140 nM | 
14 | Cc1cccc(C)c1OCC(=O)N[C@@H](Cc1ccccc1)[C@H](O)C(=O)N1CSC(C)(C)[C@H]1C(=O)N[C@H]1c2ccccc2C[C@H]1O [KNI-10006] |  | 2 nM | inhibition constants against Plasmepsin II, in words [1]: nanomolar and subnanomolar range; discrimination factor / Cathepsin D selectivity [1]: 4; Ki [1, 7]: 0.5 nM; Discrimination Factor: Fold Selectivity for Plasmepsin II over Cathepsin D [1]: 4; Ki ([1]; read-out: Ki (Plasmepsin II)): 0.5 nM; Ki [2, 6]: 2 nM
15 | CC(C)[C@H](NC(=O)COc1cccc2cnccc12)C(=O)N[C@@H](Cc1ccccc1)[C@H](O)C(=O)N1CSC(C)(C)[C@H]1C(=O)NC(C)(C)C [KNI-492] | 340 ± 20 nM | 3700 ± 350 nM | 
16 | CC(C(=O)O)C(C)C(=O)N[C@@H](Cc1ccccc1)[C@H](O)C(=O)N1CSC[C@H]1C(=O)NC(C)(C)C (some centres unmarked) [KNI-547] | 30700 ± 8100 nM | 18200 ± 3300 nM | 
17 | CSC[C@H](NC(=O)COc1cccc2cnccc12)C(=O)N[C@@H](Cc1ccccc1)[C@H](O)C(=O)N1CSC[C@H]1C(=O)NC(C)(C)C [KNI-272] | 1000 ± 200 nM | 2580 ± 300 nM | 

Continued by falling Ki [2, 5], values first:

Row | Ki [1, 4] | Ki [2, 5] | Compound | also measured
18 | 428 ± 21 nM | 5300 ± 633 nM | CCSC[C@H](NC(=O)COc1cccc2cnccc12)C(=O)N[C@@H](Cc1ccccc1)[C@H](O)C(=O)N1CSC(C)(C)[C@H]1C(=O)NC(C)(C)C [KNI-10057] | 
19 | 590 ± 70 nM | 3440 ± 700 nM | Cc1c(O)cccc1C(=O)N[C@@H](Cc1ccccc1)[C@H](O)C(=O)N1CSC(C)(C)[C@H]1C(=O)NC(C)(C)C [KNI-577] | 
20 | 535 ± 55 nM | 2620 ± 390 nM | CSCC[C@H](NC(=O)COc1cccc2cnccc12)C(=O)N[C@@H](Cc1ccccc1)[C@H](O)C(=O)N1CSC(C)(C)[C@H]1C(=O)NC(C)(C)C [KNI-10032] | 
21 | 70 ± 40 nM | 1600 ± 300 nM | Cc1cccc(C)c1OCC(=O)NC(Cc1ccccc1)C(O)C(=O)N1CSC(C)(C)C1C(=O)NC(C)(C)C (centres unmarked) [KNI-727] | inhibition constants against Plasmepsin II, in words [1]: nanomolar and subnanomolar range; discrimination factor / Cathepsin D selectivity [1]: 22; Discrimination Factor: Fold Selectivity for Plasmepsin II over Cathepsin D [1]: ~23; Ki [2, 6]: 1600 nM
22 | 99 ± 14 nM | 771 ± 97 nM | Cc1cccc(C)c1OCC(=O)N[C@@H](Cc1ccccc1)[C@H](O)C(=O)N1CSC(C)(C)[C@H]1C(=O)NCc1cccc(O)c1 [KNI-10048] | 
23 | 1630 ± 157 nM | 690 ± 70 nM | CC(C)[C@H](NC(=O)Cc1cccc2ccccc12)C(=O)N[C@@H](Cc1ccccc1)[C@H](O)C(=O)N1CSC(C)(C)[C@H]1C(=O)NC(C)(C)C [KNI-10028] | 
24 | 2180 ± 250 nM | 515 ± 47 nM | CC(C)[C@H](NC(=O)c1cc2ccccc2o1)C(=O)N[C@@H](Cc1ccccc1)[C@H](O)C(=O)N1CSC(C)(C)[C@H]1C(=O)NC(C)(C)C [KNI-10009] | 
25 | 41 ± 7 nM | 360 ± 54 nM | Cc1cccc(CNC(=O)[C@H]2N(C(=O)[C@@H](O)[C@H](Cc3ccccc3)NC(=O)COc3c(C)cccc3C)CSC2(C)C)c1 [KNI-10053] | inhibition constants against Plasmepsin II, in words [1]: nanomolar and subnanomolar range; Ki [1, 7]: 41 nM; Discrimination Factor: Fold Selectivity for Plasmepsin II over Cathepsin D [1]: ~9; Ki [2, 6]: 360 nM
26 | 522 ± 50 nM | 290 ± 90 nM | CC(C)[C@H](NC(=O)c1ccc2ccccc2n1)C(=O)N[C@@H](Cc1ccccc1)[C@H](O)C(=O)N1CSC(C)(C)[C@H]1C(=O)NC(C)(C)C [KNI-10004] | 
27 | 96 ± 20 nM | 260 ± 23 nM | Cc1cccc(C)c1OCC(=O)N[C@@H](Cc1ccccc1)[C@H](O)C(=O)N1CSC(C)(C)[C@H]1C(=O)NCc1ccccc1 [KNI-10046] | 
28 | 30 ± 9 nM | 201 ± 20 nM | Cc1ccccc1CNC(=O)[C@H]1N(C(=O)[C@@H](O)[C@H](Cc2ccccc2)NC(=O)c2cccc(O)c2C)CSC1(C)C [KNI-764] | IC50 [3]: 10000 nM; inhibition constants against Plasmepsin II, in words [1]: nanomolar and subnanomolar range; Ki [1, 7]: 30 nM; Discrimination Factor: Fold Selectivity for Plasmepsin II over Cathepsin D [1]: ~7; Ki [2, 6]: 201 nM
29 | 20 ± 10 nM | 80 ± 90 nM | Cc1ccccc1CNC(=O)[C@H]1N(C(=O)[C@@H](O)[C@H](Cc2ccccc2)NC(=O)COc2c(C)cccc2C)CSC1(C)C [KNI-840] | IC50 [3]: 10000 nM; inhibition constants against Plasmepsin II, in words [1]: nanomolar and subnanomolar range; discrimination factor / Cathepsin D selectivity [1]: 4; Ki [1, 7]: 20 nM; Discrimination Factor: Fold Selectivity for Plasmepsin II over Cathepsin D [1]: 4; Ki ([1]; read-out: Ki (Plasmepsin II), unit inferred): ~20 nM; Ki [2, 6]: 80 nM
